Earlier results as cited in patent US11504411B1, “Herbal dietary supplement supporting healthy immune function” (Progressing Bodies, Inc., priority 2021, dated 2022).

What was measured:
norovirus = conditions: over the course of less than one hour
herpes simplex virus = conditions: within just one hour

Structure (SMILES) | singlet oxygen quenching strength relative to CoQ10 (versus CoQ10) [times] | singlet oxygen quenching strength relative to green tea catechins (versus green tea catechins) [times] | singlet oxygen quenching strength relative to vitamin C (versus vitamin C) | inactivation of norovirus (norovirus) | herpes simplex virus inactivated (herpes simplex virus) [%]
CC1=C(/C=C/C(C)=C/C=C/C(C)=C/C=C/C=C(C)/C=C/C=C(C)/C=C/C2=C(C)C(=O)[C@@H](O)CC2(C)C)C(C)(C)C[C@H](O)C1=O [astaxanthin] | 800 | 550 | 6,000 times |  | 
Cc1ccc(C(C)C)cc1O [carvacrol] |  |  |  | inactivated norovirus | 90
Cc1ccc(C(C)C)c(O)c1 [thymol] |  |  |  |  | 90
